{"source": "PubChem BioAssay AID330", "about": "(DTP/NCI, 2004)", "tested_on": "P388 leukemia ip, CD2F1 mice, survival T/C", "assay": "NCI In Vivo Anticancer Drug Screen. Data for tumor model P388 Leukemia (intraperitoneal) in CD2F1 (CDF1) mice", "conditions": "endpoint: median survival time, higher = longer survival", "outline": "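Mice carrying the transplanted tumor received test compound or vehicle. Survival was recorded in each group, and the value is the treated-group measurement divided by that of the vehicle-treated control group.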", "key": {"[1]": {"conditions": "dose: 50.0 mg/kg/injection, schedule: Q01DX005 (ip), vehicle: saline with Tween-80"}, "[2]": {"conditions": "dose: 100.0 mg/kg/injection, schedule: Q01DX005 (ip), vehicle: saline with Tween-80"}, "[3]": {"conditions": "dose: 200.0 mg/kg/injection, schedule: Q01DX005 (ip), vehicle: saline with Tween-80"}}, "note": "Values joined by “and” are separate entries in the source; they are usually repeats but may differ in a detail not shown here. Identical values can stand only once. Toxic doses and inconclusive results are not listed.", "data": [{"smiles": "Cc1cc(NC(=O)c2ccc(N=Nc3c(O)c(S(=O)(=O)O)cc4cc(S(=O)(=O)O)ccc34)cc2)ccc1N=Nc1ccc2cc(S(=O)(=O)O)cc(S(=O)(=O)O)c2c1", "values": [{"measurement": "T/C", "setting": "[1]", "result": "95 % of control"}, {"measurement": "T/C", "setting": "[2]", "result": "98 % of control"}, {"measurement": "T/C", "setting": "[3]", "result": "104 % of control"}]}, {"smiles": "COc1cc2cc(c1Cl)N1CCC(C)(O)C(=O)NC(C)C(=O)OC(CC1=O)C1(C)OC1C(C)C1CC(O)(NC(=O)O1)C(OC)/C=C\\C=C(\\C)C2OC", "note": "(stereo not drawn)", "values": [{"measurement": "T/C", "setting": "dose: 4.0 micrograms/kg/injection, schedule: Q01DX009 (ip), vehicle: distilled water + alcohol", "result": "150 % of control"}, {"measurement": "T/C", "setting": "dose: 16.0 micrograms/kg/injection, schedule: Q01DX009 (ip), vehicle: distilled water + alcohol", "result": "157 % of control"}, {"measurement": "T/C", "setting": "dose: 32.0 micrograms/kg/injection, schedule: Q01DX009 (ip), vehicle: distilled water + alcohol", "result": "150 % of control"}]}, {"smiles": "COC(=O)C1CCC(c2ccccc2)(c2ccccc2)C1=O.COC(=O)C1CCC(c2ccccc2)(c2ccccc2)C1=O.[Cu]", "note": "(stereo not drawn)", "values": [{"measurement": "T/C", "setting": "dose: 100.0 mg/kg/injection, schedule: Q01DX001 (ip), vehicle: Klucel (hydroxypropylcellulose) (HPC)", "result": "100 % of control"}, {"measurement": "T/C", "setting": "dose: 200.0 mg/kg/injection, schedule: Q01DX001 (ip), vehicle: Klucel (hydroxypropylcellulose) (HPC)", "result": "100 % of control"}, {"measurement": "T/C", "setting": "dose: 400.0 mg/kg/injection, schedule: Q01DX001 (ip), vehicle: Klucel (hydroxypropylcellulose) (HPC)", "result": "102 % of control"}]}, {"smiles": "COc1ccc(N=C(Cl)c2ccc(Br)cc2)cc1", "values": [{"measurement": "T/C", "setting": "[1]", "result": "97 % of control"}, {"measurement": "T/C", "setting": "[2]", "result": "96 % of control"}, {"measurement": "T/C", "setting": "[3]", "result": "96 % of control"}]}, {"smiles": "CCOC(=O)c1cnc(N(C)C)nc1SC(=N)N", "values": [{"measurement": "T/C", "setting": "dose: 50.0 mg/kg/injection, schedule: Q04DX003 (ip), vehicle: saline", "result": "100 % of control"}, {"measurement": "T/C", "setting": "dose: 100.0 mg/kg/injection, schedule: Q04DX003 (ip), vehicle: saline", "result": "95 % of control"}, {"measurement": "T/C", "setting": "dose: 200.0 mg/kg/injection, schedule: Q04DX003 (ip), vehicle: saline", "result": "104 % of control"}]}, {"smiles": "CCn1c2ccccc2c2ccc(N=Nc3ccc(N(C)C)cc3)cc21", "values": [{"measurement": "T/C", "setting": "dose: 50.0 mg/kg/injection, schedule: Q01DX009 (ip), vehicle: saline with Tween-80", "result": "111 % of control and 112 % of control and 113 % of control"}, {"measurement": "T/C", "setting": "dose: 100.0 mg/kg/injection, schedule: Q01DX009 (ip), vehicle: saline with Tween-80", "result": "108 % of control and 118 % of control"}]}, {"smiles": "CCOc1c(N=Nc2cccc(Cl)c2)c(-c2ccccc2)nn1C(N)=S", "values": [{"measurement": "T/C", "setting": "[1]", "result": "111 % of control"}, {"measurement": "T/C", "setting": "[2]", "result": "101 % of control"}, {"measurement": "T/C", "setting": "[3]", "result": "96 % of control"}]}, {"smiles": "COc1cc2c3c(n(C)c(=O)c2cc1OC)-c1cc2c(cc1C3=O)OCO2", "values": [{"measurement": "T/C", "setting": "dose: 2.0 mg/kg/injection, schedule: Q01DX009 (ip), vehicle: distilled water + Tween-80", "result": "98 % of control"}, {"measurement": "T/C", "setting": "dose: 4.0 mg/kg/injection, schedule: Q01DX009 (ip), vehicle: distilled water + Tween-80", "result": "100 % of control"}, {"measurement": "T/C", "setting": "dose: 8.0 mg/kg/injection, schedule: Q01DX009 (ip), vehicle: distilled water + Tween-80", "result": "107 % of control"}, {"measurement": "T/C", "setting": "dose: 16.0 mg/kg/injection, schedule: Q01DX009 (ip), vehicle: distilled water + Tween-80", "result": "98 % of control"}, {"measurement": "T/C", "setting": "dose: 32.0 mg/kg/injection, schedule: Q01DX009 (ip), vehicle: distilled water + Tween-80", "result": "100 % of control"}, {"measurement": "T/C", "setting": "dose: 64.0 mg/kg/injection, schedule: Q01DX009 (ip), vehicle: distilled water + Tween-80", "result": "99 % of control and 109 % of control"}, {"measurement": "T/C", "setting": "dose: 128.0 mg/kg/injection, schedule: Q01DX009 (ip), vehicle: distilled water + Tween-80", "result": "111 % of control and 123 % of control"}, {"measurement": "T/C", "setting": "dose: 256.0 mg/kg/injection, schedule: Q01DX009 (ip), vehicle: distilled water + Tween-80", "result": "100 % of control and 92 % of control"}]}, {"smiles": "COc1ccc(C2=NN(c3ccccc3)C(=O)/C2=C(/SC)N2CC2)cc1", "values": [{"measurement": "T/C", "setting": "dose: 100.0 mg/kg/injection, schedule: Q04DX003 (ip), vehicle: Klucel (hydroxypropylcellulose) (HPC)", "result": "99 % of control"}, {"measurement": "T/C", "setting": "dose: 200.0 mg/kg/injection, schedule: Q04DX003 (ip), vehicle: Klucel (hydroxypropylcellulose) (HPC)", "result": "91 % of control"}, {"measurement": "T/C", "setting": "dose: 400.0 mg/kg/injection, schedule: Q04DX003 (ip), vehicle: Klucel (hydroxypropylcellulose) (HPC)", "result": "102 % of control"}]}, {"smiles": "O=C1CC(c2ccccc2)C(c2ccccc2)C1", "note": "(stereo not drawn)", "values": [{"measurement": "T/C", "setting": "dose: 50.0 mg/kg/injection, schedule: Q01DX009 (ip), vehicle: Klucel (hydroxypropylcellulose) (HPC)", "result": "94 % of control"}, {"measurement": "T/C", "setting": "dose: 100.0 mg/kg/injection, schedule: Q01DX009 (ip), vehicle: Klucel (hydroxypropylcellulose) (HPC)", "result": "97 % of control"}, {"measurement": "T/C", "setting": "dose: 200.0 mg/kg/injection, schedule: Q01DX009 (ip), vehicle: Klucel (hydroxypropylcellulose) (HPC)", "result": "93 % of control"}]}, {"smiles": "Cn1ccc(=O)n(C)c1=O", "values": [{"measurement": "T/C", "setting": "dose: 100.0 mg/kg/injection, schedule: Q04DX002 (ip), vehicle: saline", "result": "107 % of control"}, {"measurement": "T/C", "setting": "dose: 200.0 mg/kg/injection, schedule: Q04DX002 (ip), vehicle: saline", "result": "107 % of control"}, {"measurement": "T/C", "setting": "dose: 400.0 mg/kg/injection, schedule: Q04DX002 (ip), vehicle: saline", "result": "109 % of control"}]}, {"smiles": "CCCC(=O)ON(C)C(=O)CCC", "values": [{"measurement": "T/C", "setting": "[2]", "result": "96 % of control"}, {"measurement": "T/C", "setting": "[3]", "result": "105 % of control"}, {"measurement": "T/C", "setting": "dose: 400.0 mg/kg/injection, schedule: Q01DX005 (ip), vehicle: saline with Tween-80", "result": "117 % of control"}]}, {"smiles": "CC1=CC(C)=Nc2ccccc2N1", "values": [{"measurement": "T/C", "setting": "dose: 50.0 mg/kg/injection, schedule: Q01DX009 (ip), vehicle: saline", "result": "103 % of control"}, {"measurement": "T/C", "setting": "dose: 100.0 mg/kg/injection, schedule: Q01DX009 (ip), vehicle: saline", "result": "99 % of control and 101 % of control"}, {"measurement": "T/C", "setting": "dose: 200.0 mg/kg/injection, schedule: Q01DX009 (ip), vehicle: saline", "result": "94 % of control"}]}]}
